This is an account of results in PubChem BioAssay AID1259407 (Chemical Carcinogenesis Research Information System (CCRIS), 2018).

The subject of the series is CCRIS mutagenicity, Ames/micronucleus/aberration tests. In words: CCRIS mutagenicity studies.
The mark [1] stands for this setting: Test System: MOUSE LYMPHOMA, Strain/Indicator: L5178Y (TK+/TK-), Metabolic Activation: NONE, Method: SUSPENSION/PLATE.
[2] abbreviates: Test System: AMES SALMONELLA TYPHIMURIUM, Strain/Indicator: TA98, Metabolic Activation: NONE, Method: STANDARD PLATE.
Setting [3] is: Test System: AMES SALMONELLA TYPHIMURIUM, Strain/Indicator: TA100, Metabolic Activation: NONE, Method: STANDARD PLATE.
Setting [4] is: Test System: AMES SALMONELLA TYPHIMURIUM, Strain/Indicator: TA100, Metabolic Activation: NONE, Method: PREINCUBATION
[5] abbreviates: Test System: AMES SALMONELLA TYPHIMURIUM, Strain/Indicator: TA1537, Metabolic Activation: NONE, Method: STANDARD PLATE.
Setting [6] is: Test System: AMES SALMONELLA TYPHIMURIUM, Strain/Indicator: TA1538, Metabolic Activation: NONE, Method: STANDARD PLATE.

Active and inactive are the calls of the source. No rule for the calls is given here.

On to `C=C(C)C(=O)OCCOCCOCCOCCOC(=O)C(=C)C`, for which the mutagenic call under setting [1] was “active; positive”.
In the case of `Oc1ccccc1-c1nc2ccccc2o1`, the mutagenic call reads like this: under setting [2], “inactive; negative”; (Test System: AMES SALMONELLA TYPHIMURIUM, Strain/Indicator: TA98, Metabolic Activation: S-9, Method: STANDARD PLATE) “inactive; negative”.
In the case of `N#C/C(=C/C=C/c1ccccc1)c1ccc(F)cc1`, the mutagenic call reads like this: (Test System: AMES SALMONELLA TYPHIMURIUM, Strain/Indicator: TA97A, Metabolic Activation: NONE, Method: STANDARD PLATE) “active; positive”; under setting [3], “inactive; negative”.
On to `CN(C)c1cccc(O)c1`, for which the mutagenic call (Test System: AMES SALMONELLA TYPHIMURIUM, Strain/Indicator: TA97, Metabolic Activation: HAMSTER, LIVER, S-9, AROCLOR 1254 (10%), Method: PREINCUBATION) was “active; positive”; the mutagenic call (Test System: AMES SALMONELLA TYPHIMURIUM, Strain/Indicator: TA97, Metabolic Activation: NONE, Method: PREINCUBATION) is “inactive; negative”; the mutagenic call (Test System: AMES SALMONELLA TYPHIMURIUM, Strain/Indicator: TA97, Metabolic Activation: RAT, LIVER, S-9, AROCLOR 1254 (10%), Method: PREINCUBATION) is “active; positive”; the mutagenic call (Test System: AMES SALMONELLA TYPHIMURIUM, Strain/Indicator: TA98, Metabolic Activation: HAMSTER, LIVER, S-9, AROCLOR 1254 (10%), Method: PREINCUBATION) is “active; positive”; the mutagenic call (Test System: AMES SALMONELLA TYPHIMURIUM, Strain/Indicator: TA98, Metabolic Activation: NONE, Method: PREINCUBATION) is “inactive; negative”; the mutagenic call (Test System: AMES SALMONELLA TYPHIMURIUM, Strain/Indicator: TA98, Metabolic Activation: RAT, LIVER, S-9, AROCLOR 1254 (10%), Method: PREINCUBATION) is “active; positive”. For the same compound, the mutagenic call reads like this: (Test System: AMES SALMONELLA TYPHIMURIUM, Strain/Indicator: TA100, Metabolic Activation: HAMSTER, LIVER, S-9, AROCLOR 1254 (10%), Method: PREINCUBATION) “active; positive”; under setting [4], “inactive; negative”; (Test System: AMES SALMONELLA TYPHIMURIUM, Strain/Indicator: TA100, Metabolic Activation: RAT, LIVER, S-9, AROCLOR 1254 (10%), Method: PREINCUBATION) “active; positive”; (Test System: AMES SALMONELLA TYPHIMURIUM, Strain/Indicator: TA1535, Metabolic Activation: HAMSTER, LIVER, S-9, AROCLOR 1254 (10%), Method: PREINCUBATION) “inactive; negative”; (Test System: AMES SALMONELLA TYPHIMURIUM, Strain/Indicator: TA1535, Metabolic Activation: NONE, Method: PREINCUBATION) “inactive; negative”; (Test System: AMES SALMONELLA TYPHIMURIUM, Strain/Indicator: TA1535, Metabolic Activation: RAT, LIVER, S-9, AROCLOR 1254 (10%), Method: PREINCUBATION) “inactive; negative”.
Consider `CC(=O)Nc1cc2c(cc1[N+](=O)[O-])[nH]c1ccccc12`, for which the mutagenic call reads like this: under setting [2], “active; positive”; (Test System: AMES SALMONELLA TYPHIMURIUM, Strain/Indicator: TA98, Metabolic Activation: RAT, LIVER, S-9, PHENOBARBITAL, Method: STANDARD PLATE) “active; positive”; under setting [3], “inactive; negative”; (Test System: AMES SALMONELLA TYPHIMURIUM, Strain/Indicator: TA100, Metabolic Activation: RAT, LIVER, S-9, PHENOBARBITAL, Method: STANDARD PLATE) “inactive; negative”; under setting [5], “inactive; negative”; (Test System: AMES SALMONELLA TYPHIMURIUM, Strain/Indicator: TA1537, Metabolic Activation: RAT, LIVER, S-9, PHENOBARBITAL, Method: STANDARD PLATE) “inactive; negative”. Besides, the mutagenic call is “active; positive” under setting [6]; “active; positive” (Test System: AMES SALMONELLA TYPHIMURIUM, Strain/Indicator: TA1538, Metabolic Activation: RAT, LIVER, S-9, PHENOBARBITAL, Method: STANDARD PLATE); “inactive; negative” (Test System: AMES SALMONELLA TYPHIMURIUM, Strain/Indicator: TA1977, Metabolic Activation: NONE, Method: STANDARD PLATE); “inactive; negative” (Test System: AMES SALMONELLA TYPHIMURIUM, Strain/Indicator: TA1977, Metabolic Activation: RAT, LIVER, S-9, PHENOBARBITAL, Method: STANDARD PLATE).
Turning to `O=C(O)/C=C/c1ccccc1`, the mutagenic call was “inactive; negative” (Test System: AMES SALMONELLA TYPHIMURIUM, Strain/Indicator: TA98, Metabolic Activation: HAMSTER, LIVER, S-9, AROCLOR 1254 (2.5-20%), Method: PREINCUBATION); “inactive; negative” (Test System: AMES SALMONELLA TYPHIMURIUM, Strain/Indicator: TA98, Metabolic Activation: HAMSTER, LIVER, S-9, AROCLOR 1254, Method: STANDARD PLATE); “inactive; negative” under setting [2]; “inactive; negative” (Test System: AMES SALMONELLA TYPHIMURIUM, Strain/Indicator: TA98, Metabolic Activation: RAT, LIVER, S-9, AROCLOR 1254, Method: STANDARD PLATE); “inactive; negative” (Test System: AMES SALMONELLA TYPHIMURIUM, Strain/Indicator: TA100, Metabolic Activation: HAMSTER, LIVER, S-9, AROCLOR 1254 (2.5-20%), Method: PREINCUBATION); “inactive; negative” (Test System: AMES SALMONELLA TYPHIMURIUM, Strain/Indicator: TA100, Metabolic Activation: HAMSTER, LIVER, S-9, AROCLOR 1254, Method: STANDARD PLATE). The mutagenic call is, setting by setting: under setting [4], “inactive; negative”; under setting [3], “inactive; negative”; (Test System: AMES SALMONELLA TYPHIMURIUM, Strain/Indicator: TA100, Metabolic Activation: RAT, LIVER, S-9, AROCLOR 1254, Method: PREINCUBATION) “inactive; negative”; (Test System: AMES SALMONELLA TYPHIMURIUM, Strain/Indicator: TA100, Metabolic Activation: RAT, LIVER, S-9, AROCLOR 1254, Method: STANDARD PLATE) “inactive; negative”; (Test System: AMES SALMONELLA TYPHIMURIUM, Strain/Indicator: TA102, Metabolic Activation: HAMSTER, LIVER, S-9, AROCLOR 1254, Method: PREINCUBATION) “inactive; negative”; (Test System: AMES SALMONELLA TYPHIMURIUM, Strain/Indicator: TA102, Metabolic Activation: NONE, Method: PREINCUBATION) “inactive; negative”. Also, the mutagenic call was “inactive; negative” (Test System: AMES SALMONELLA TYPHIMURIUM, Strain/Indicator: TA102, Metabolic Activation: RAT, LIVER, S-9, AROCLOR 1254, Method: PREINCUBATION); “inactive; negative” (Test System: AMES SALMONELLA TYPHIMURIUM, Strain/Indicator: TA1535, Metabolic Activation: HAMSTER, LIVER, S-9, AROCLOR 1254, Method: STANDARD PLATE); “inactive; negative” (Test System: AMES SALMONELLA TYPHIMURIUM, Strain/Indicator: TA1535, Metabolic Activation: NONE, Method: STANDARD PLATE); “inactive; negative” (Test System: AMES SALMONELLA TYPHIMURIUM, Strain/Indicator: TA1535, Metabolic Activation: RAT, LIVER, S-9, AROCLOR 1254, Method: STANDARD PLATE); “inactive; negative” (Test System: AMES SALMONELLA TYPHIMURIUM, Strain/Indicator: TA1537, Metabolic Activation: HAMSTER, LIVER, S-9, AROCLOR 1254, Method: STANDARD PLATE); “inactive; negative” under setting [5]. The mutagenic call is “inactive; negative” (Test System: AMES SALMONELLA TYPHIMURIUM, Strain/Indicator: TA1537, Metabolic Activation: RAT, LIVER, S-9, AROCLOR 1254, Method: STANDARD PLATE); “inactive; negative” (Test System: AMES SALMONELLA TYPHIMURIUM, Strain/Indicator: TA1538, Metabolic Activation: HAMSTER, LIVER, S-9, AROCLOR 1254, Method: STANDARD PLATE); “inactive; negative” under setting [6]; “inactive; negative” (Test System: AMES SALMONELLA TYPHIMURIUM, Strain/Indicator: TA1538, Metabolic Activation: RAT, LIVER, S-9, AROCLOR 1254, Method: STANDARD PLATE); “active; positive. reevaluation of results: equivocal” under setting [1]; “inactive; negative” (Test System: Mouse lymphoma, Strain/Indicator: L5178Y (tk+/tk-), Metabolic Activation: Rat, Liver, S-9, Aroclor 1254, Method: Suspension/plate).
